Patent US20050026189A1, “Microbial operons” (priority 2003, published 2005)
In brackets after ≈: the same amount, converted by molar mass. Where two headings read alike, the source gives them in different places. Positions of bridges follow the written chain, without caps; N, C: chain ends. Non-standard residues stand in square brackets, D forms with d. Residues, ends and D or L forms follow the SMILES beside them. *: point of attachment. Ileψ(thiazoline)Cys = CC[C@H](C)[C@H](N)C1=N[C@H](C(=O)*)CS1; dOrn = NCCC[C@@H](N)C(=O)O

Key:
[1] = system: E. coli transcribing antisense RNA to rplL and rplJ (AS-rplL/J); experiment: microbe, parasite or virus in culture; assay type: cell-based; details: for Fold Increase in Sensitivity: IC50 without IPTG versus IC50 with 400 μM IPTG; for Sensitivity Increased?: statistically significant decrease in the IC50 value in the presence of inducer (IPTG); for IC50: Escherichia coli
Protocol: The effectiveness of the above assays was validated using proliferation-required genes from E. coli which were identified using procedures similar to those described above. Antibiotics of various chemical classes and modes of action were purchased from Sigma Chemicals (St. Louis, Mo.). Stock solutions were prepared by dissolving each antibiotic in an appropriate aqueous solution based on information provided by the manufacturer. The final working solution of each antibiotic contained no more than 0.2% (w/v) of any organic solvent. To determine their potency against a bacterial strain engineered for transcription of an antisense comprising a nucleotide sequence complementary to a proliferation-required 50S ribosomal protein, each antibiotic was serially diluted two- or three-fold in growth medium supplemented with the appropriate antibiotic for maintenance of the antisense construct. At least ten dilutions were prepared for each antibiotic. 25 μL aliquots of each dilution were transferred to discrete wells of a 384-well microplate (the assay plate) using a multi-channel pipette. Quadruplicate wells were used for each dilution of an antibiotic under each treatment condition (plus and minus inducer). Each assay plate contained twenty wells for cell growth controls (growth medium replacing antibiotic), ten wells for each treatment (plus and minus inducer, in this example IPTG). Assay plates were usually divided into the two treatments: half the plate containing induced cells and an appropriate concentrations of inducer (in this example IPTG) to maintain the state of induction, the other half containing non-induced cells in the absence of IPTG.
Cells for the assay were prepared as follows. Bacterial cells containing a construct, from which transcription of antisense nucleic acid comprising a nucleotide sequence complementary to rplL and rplJ (AS-rplL/J), which encode proliferation-required 50S ribosomal subunit proteins, is inducible in the presence of IPTG, were grown into exponential growth (OD600 0.2 to 0.3) and then diluted 1:100 into fresh medium containing either 400 μM or 0 μM inducer (IPTG). These cultures were incubated at 37° C. for 2.5 hr. After a 2.5 hr incubation, induced and non-induced cells were respectively diluted into an assay medium at a final OD600 value of 0.0004. The medium contained an appropriate concentration of the antibiotic for the maintenance of the antisense construct. In addition, the medium used to dilute induced cells was supplemented with 800 μM IPTG so that addition to the assay plate would result in a final IPTG concentration of 400 μM. Induced and non-induced cell suspensions were dispensed (25 μl/well) into the appropriate wells of the assay plate as discussed previously. The plate was then loaded into a plate reader, incubated at constant temperature, and cell growth was monitored in each well by the measurement of light scattering at 595 nm. Growth was monitored every 5 minutes until the cell culture attained a stationary growth phase. For each concentration of antibiotic, a percentage inhibition of growth was calculated at the time point corresponding to mid-exponential growth for the associated control wells (no antibiotic, plus or minus IPTG). For each antibiotic and condition (plus or minus IPTG), a plot of percent inhibition versus log of antibiotic concentration was generated and the IC50 determined.

[2] = system: Staphylococcus aureus cells transcribing antisense to gyrB; experiment: Antibiotic potency in Staphylococcus aureus cells with and without xylose-induced antisense to the Beta subunit of DNA gyrase (FIG. 10); assay type: cell-based; details: 12 mM xylose versus 0 mM xylose; antisense to β subunit of gyrase
Protocol: Antibiotics of various chemical classes and modes of action were purchased from chemical suppliers, for example Sigma Chemicals (St. Louis, Mo). Stock solutions were prepared by dissolving each antibiotic in an appropriate aqueous solution based on information provided by the manufacturer. The final working solution of each antibiotic contained no more than 0.2% (w/v) of any organic solvent.
To determine its potency against a bacterial strain containing an antisense nucleic acid comprising a nucleotide sequence complementary to the nucleotide sequence encoding the Beta subunit of DNA gyrase (which is required for proliferation) under the control of a xylose inducible promoter, each antibiotic was serially diluted two- or three-fold in growth medium supplemented with the appropriate antibiotic for maintenance of the antisense construct. At least ten dilutions were prepared for each antibiotic.
Aliquots (25 μL) of each dilution were transferred to discrete wells of a 384-well microplate (the assay plate) using a multi-channel pipette. Quadruplicate wells were used for each dilution of an antibiotic under each treatment condition (plus and minus inducer). Each assay plate contained twenty wells for cell growth controls (growth medium, no antibiotic), ten wells for each treatment (plus and minus inducer, xylose, in this example). Half the assay plate contained induced cells (in this example Staphylococcus aureus cells) and appropriate concentrations of inducer (xylose, in this example) to maintain the state of induction while the other half of the assay plate contained non-induced cells maintained in the absence of inducer.
Cells of a bacterial clone containing a construct in which transcription of antisense comprising a nucleotide sequence complementary to the sequence encoding the Beta subunit of DNA gyrase under the control of the xylose inducible promoter (S1M10000001F08) were grown into exponential growth (OD600 0.2 to 0.3) and then diluted 1:100 into fresh medium containing either 12 mM or 0 mM inducer (xylose). These cultures were incubated at 37° C. for 2.5 hr. The presence of inducer (xylose) in the medium initiates and maintains production of antisense RNA from the antisense construct. After a 2.5 hr incubation, induced and non-induced cells were respectively diluted into an assay medium containing an appropriate concentration of the antibiotic for the maintenance of the antisense construct. In addition, medium used to dilute induced cells was supplemented with 24 mM xylose so that addition to the assay plate would result in a final xylose concentration of 12 mM. The cells were diluted to a final OD600 value of 0.0004.
Induced and non-induced cell suspensions were dispensed (25 μl/well) into the appropriate wells of the assay plate as discussed previously. The plate was then loaded into a plate reader and incubated at constant temperature while cell growth was monitored in each well by the measurement of light scattering at 595 nm. Growth was monitored every 5 minutes until the cell culture attained a stationary growth phase. For each concentration of antibiotic, a percentage inhibition of growth was calculated at the time point corresponding to mid-exponential growth for the associated control wells (no antibiotic, plus or minus xylose). For each antibiotic and condition (plus or minus xylose), plots of percent inhibition versus Log of antibiotic concentration were generated and IC50s, determined.

Compound	Fold Increase in Sensitivity [1] [Fold]	Sensitivity Increased? [1]	potency in induced cells as compared to uninduced cells [2]	other results
CO/N=C(\C(=O)N[C@@H]1C(=O)N2C(C(=O)O)=C(COC(C)=O)CS[C@H]12)c1csc(N)n1 [Cefotaxime]	1	No	not significantly different	
CC1COc2c(N3CCN(C)CC3)c(F)cc3c(=O)c(C(=O)O)cn1c23 (stereo not drawn) [Ofloxacin]	1			
CC(=O)O[C@H]1C[C@@]2(C)[C@@H](C[C@@H](O)[C@H]3[C@@]4(C)CC[C@@H](O)[C@@H](C)[C@@H]4CC[C@@]32C)/C1=C(\CCC=C(C)C)C(=O)O [Fusidic acid]	94	Yes	not significantly different	
CN(C)[C@@H]1C(O)=C(C(N)=O)C(=O)[C@@]2(O)C(O)=C3C(=O)c4c(O)cccc4[C@@](C)(O)[C@H]3C[C@@H]12 [Tetracycline]	109			
CO[C@@]1(NC(=O)Cc2cccs2)C(=O)N2C(C(=O)O)=C(COC(N)=O)CS[C@@H]21 [Cefoxitin]	1	No	not significantly different	
CCC[C@@H]1C[C@@H](C(=O)N[C@@H]([C@H]2O[C@H](SC)[C@H](O)[C@@H](O)[C@H]2O)[C@@H](C)O)N(C)C1 [Lincomycin]	145	Yes	not significantly different	
NC[C@H]1O[C@H](O[C@H]2[C@H](O)[C@@H](O[C@H]3O[C@H](CO)[C@@H](O)[C@H](N)[C@H]3O)[C@H](N)C[C@@H]2N)[C@H](N)C[C@@H]1O [Tobramycin]	51	Yes	not significantly different	
Gentamicin	141	Yes		IC50 (+IPTG) ([1]; induced cells, 400 μM IPTG): 19.19 ng/mL; IC50 (−IPTG) ([1]; non-induced cells, 0 μM IPTG): 2715 ng/mL
CN[C@H](CC(C)C)C(=O)N[C@H]1C(=O)N[C@@H](CC(N)=O)C(=O)N[C@H]2C(=O)N[C@H]3C(=O)N[C@H](C(=O)N[C@H](C(=O)O)c4cc(O)cc(O)c4-c4cc3ccc4O)[C@H](O)c3ccc(c(Cl)c3)Oc3cc2cc(c3O[C@@H]2O[C@H](CO)[C@@H](O)[C@H](O)[C@H]2O[C@H]2C[C@](C)(N)[C@H](O)[C@H](C)O2)Oc2ccc(cc2Cl)[C@H]1O [Vancomycin]	2	No	not significantly different	IC50 ([1]; read-out: IC50 (+IPTG)): 72.5 µg/mL (≈ 50.1 µM); IC50 ([1]; read-out: IC50 (−IPTG)): 145 µg/mL (≈ 100 µM)
CN[C@@H]1[C@H](O)[C@H](NC)[C@H]2O[C@@]3(O)C(=O)C[C@@H](C)O[C@H]3O[C@@H]2[C@H]1O [Spectinomycin]		Yes		
CC[C@H](C)[C@H](N)C1=N[C@H](C(=O)N[C@@H](CC(C)C)C(=O)N[C@H](CCC(=O)O)C(=O)N[C@H](C(=O)N[C@H]2CCCCNC(=O)[C@H](CC(N)=O)NC(=O)[C@@H](CC(=O)O)NC(=O)[C@H](Cc3cnc[nH]3)NC(=O)[C@@H](Cc3ccccc3)NC(=O)[C@H]([C@@H](C)CC)NC(=O)[C@@H](CCCN)NC2=O)[C@@H](C)CC)CS1 [Bacitracin] ({Ileψ(thiazoline)Cys}-L[dE]IK[dOrn]I[dF]H[dD]N; lactam 4-C)	1	No		
C[C@H]1c2cccc(O)c2C(=O)C2=C(O)[C@]3(O)C(=O)C(C(N)=O)=C(O)[C@@H](N(C)C)[C@@H]3[C@@H](O)[C@@H]21 [Doxycycline]	15			
O=C(N[C@H](CO)[C@H](O)c1ccc([N+](=O)[O-])cc1)C(Cl)Cl [Chloramphenicol]	307	Yes		
COc1cc(Cc2cnc(N)nc2N)cc(OC)c1OC [Trimethoprim]			not significantly different	
[H]/N=C(/N)N[C@H]1[C@H](O)[C@@H](O)[C@H](O[C@@H]2O[C@@H](C)[C@](O)(C=O)[C@H]2O[C@@H]2O[C@@H](CO)[C@H](O)[C@@H](O)[C@@H]2NC)[C@@H](N/C(N)=N\[H])[C@@H]1O [Streptomycin]	70	Yes		
CN(C)c1ccc(O)c2c1C[C@H]1C[C@H]3[C@H](N(C)C)C(O)=C(C(N)=O)C(=O)[C@@]3(O)C(O)=C1C2=O [Minocycline]	172			
